Data taken from EP2241312A1, “Use of compositions comprising urea for treating microbial infections” (ISDIN S.A., priority 2009, dated 2010).
“And” between values parts separate entries of the source, which are not always exact repeats. Equal entries are not always repeated. Where two headings read alike, the source gives them in different places.

Columns and labels:
HBD3 = assay: cells; format: cell-based, human; details: for fold induction at 10000 µM: Homo sapiens, Keratinocyte; for relative gene expression level HBD3: primary keratinocytes, 10000 µM
Protocol: (§1) Primary human epidermal keratinocytes were prepared from neonatal foreskin as described previously (Grether-Beck et al, 1996, 2000, 2003, 2005, 2008) and maintained in culture under serum free conditions using a defined keratinocyte growth medium Keratinocyte SFM (Invitrogen, Heidelberg, Germany) supplemented with bovine pituitary extract (Invitrogen, Heidelberg, Germany) and recombinant epidermal growth factor (Invitrogen, Heidelberg, Germany). Cells were propagated up to passage 2 or 3 at 37°C and 5 % CO2 (Grether-Beck et al, 1996, 2000, 2003, 2005, 2008). For induction of differentiation NHEKs were seeded in 6well plates and grown up to confluence.
(§2) For assessment of gene expression total RNA was extracted from frozen biopsies (Ø 4 mm) and gene expression measured by semiquantitative RT-PCR. For isolation of RNA from frozen skin biopsies, 600 µl lysis buffer from PeqGold Total RNA Kit (PeqLab, Erlangen, Germany) were added and the samples were disrupted in a MixerMill MM300 (Retsch, Haan, Germany) three times for 3 min with 30 Hz. 50 ng total RNA were used for cDNA synthesis. PCR reactions were performed in an Opticon 1 (MJ Research, Waltham, MA, USA) using Sybr QPCR Supermix w. Rox (Invitrogen, Karlsruhe, Germany). PCR conditions were as follows: activation of hot start taq polymerase 94° C 15 minutes; denaturation 95° C, 20 seconds; annealing, 55° C, 20 seconds; extension, 72° C 30 seconds. Each sample was subjected to PCR in double using the appropriate primer pairs for 45-50 cycles. For comparison of relative expression in real time PCR control cells and treated cells the 2 (-della delta C(T)) method was used (Livak KJ, and Schmittgen TD. Analysis of relative gene expression data using real time quantitative PCR and the 2 (-delta delta C(T)) method. Methods 2001: 25: 402 - 408). mRNA expression of the genes of interest was shown as fold induction as compared to untreated skin samples of the same volunteer. Table 1: Primer pairs for real time PCR
(§3) For determination of relative gene expression in real time PCT the 2(-delta delta C(T))-method was used as described in Livak and Schmittgen (2001) "Analysis of relative gene expression data using real time quantitative PCR and the 2 (-delta delta C(T))-method" Methods 25: 401-408. For statistical analysis, the experimental data were analyzed using the Wilcoxon signed-rank test.
(§4) HNKs were stimulated with 10mM urea for the indicated time points (3h, 6h, 12h, 24h) and processed for RNA analysis (1). Data are the result of a set of three samples for the control and two samples in parallel for the urea stimulated ones. Table 2 indicates the relative gene expression levels after stimulation with urea as compared to untreated contol cells. […] Table 3 indicates the data depicted in Figure 2. [formula] Table 2: Expression of antimicrobial peptides in human keratinocytes after stimulation with urea at different time points after induction.

LL-37 [1] = assay: LL-37 expression in confluent human keratinocytes, time course and urea concentration series (real time PCR); format: cell-based; details: for fold induction at 1000 µM / fold induction at 5000 µM / fold induction at 20000 µM / fold induction at 50000 µM / fold induction at 100000 µM / fold induction at 10000 µM: Homo sapiens, Keratinocyte; for fold induction at 20000 µM: 20mM urea
Protocol: as §1, §2
as §3, with “test. […]” for “test.”

LL-37 [2] = assay: LL-37 gene expression in subconfluent primary human keratinocytes after urea stimulation (real time PCR); format: cell-based; details: 10mM urea, compared to untreated control cells; for relative gene expression level LL-37: 10000 µM; for fold induction at 10000 µM: Homo sapiens, Keratinocyte, read-out: relative gene expression level LL-37
Protocol: as §1, §2, §3, §4

HBD-2 = assay: cells; format: cell-based, human; details: for fold induction at 1000 µM / fold induction at 10000 µM / fold induction at 20000 µM / fold induction at 50000 µM / fold induction at 100000 µM / fold induction at 5000 µM: Homo sapiens, Keratinocyte; for Expression of HBD-2: keratinocytes
Protocol: as §1, §2, §3
as §4, with “Data” for “HNKs were stimulated with 10mM urea for the indicated time points (3h, 6h, 12h, 24h) and processed for RNA analysis (1). Data”

Question: What does the source list for `NC(N)=O` [urea]?
Answer: fold induction at 10000 µM (HBD3; 3 h, read-out: relative gene expression level HBD3, 10mM urea, 3h, compared to untreated control cells): 4; fold induction at 10000 µM (HBD3; 6 h, read-out: relative gene expression level HBD3, 10mM urea, 6h, compared to untreated control cells): 2; fold induction at 10000 µM (HBD3; 12 h, read-out: relative gene expression level HBD3, 10mM urea, 12h, compared to untreated control cells): 1.6; fold induction at 10000 µM (HBD3; 24 h, read-out: relative gene expression level HBD3, 10mM urea, 24h, compared to untreated control cells): 3.2; relative gene expression level HBD3 (HBD3; 3 h): 3.7000; relative gene expression level HBD3 (HBD3; 6 h): 1.8000; relative gene expression level HBD3 (HBD3; 12 h): 1.7000; relative gene expression level HBD3 (HBD3; 24 h): 3.3000; Expression of LL-37 (LL-37 [1]; 24h, 1mM urea, 1440 min, 1000 µM): 1.9000; Expression of LL-37 (LL-37 [1]; 24h, 5mM urea, 1440 min, 5000 µM): 1.7000; Expression of LL-37 (LL-37 [1]; 24h, 10mM urea, 1440 min, 10000 µM): 1.7000; Expression of LL-37 (LL-37 [1]; 48h, 1mM urea, 2880 min, 1000 µM): 3.0000; Expression of LL-37 (LL-37 [1]; 48h, 5mM urea, 2880 min, 5000 µM): 2.2000 and 1.9000; Expression of LL-37 (LL-37 [1]; 72h, 1mM urea, 4320 min, 1000 µM): 10.3000 and 11.4000; Expression of LL-37 (LL-37 [1]; 72h, 5mM urea, 4320 min, 5000 µM): 7.1000; Expression of LL-37 (LL-37 [1]; 72h, 10mM urea, 4320 min, 10000 µM): 1.7000 and 1.7300; Expression of LL-37 (LL-37 [1]; 72h, 50mM urea, 4320 min, 50000 µM): 0.9000; Expression of LL-37 (LL-37 [1]; 96h, 1mM urea, 5760 min, 1000 µM): 4.7000 and 5.5000; Expression of LL-37 (LL-37 [1]; 96h, 5mM urea, 5760 min, 5000 µM): 4.2000; Expression of LL-37 (LL-37 [1]; 96h, 10mM urea, 5760 min, 10000 µM): 3.4000; Expression of LL-37 (LL-37 [1]; 96h, 100mM urea, 5760 min, 100000 µM): 1.0000; fold induction at 1000 µM (LL-37 [1]; 24 h, 1mM urea): 1.8; fold induction at 5000 µM (LL-37 [1]; 24 h, 5mM urea): 1.4; fold induction at 20000 µM (LL-37 [1]; 24 h): 1.2; fold induction at 50000 µM (LL-37 [1]; 24 h, 50mM urea): 1.3; fold induction at 100000 µM (LL-37 [1]; 24 h, 100mM urea): 1.2; fold induction at 1000 µM (LL-37 [1]; 48 h, 1mM urea): 3.2; fold induction at 5000 µM (LL-37 [1]; 48 h, 5mM urea): 2.1; fold induction at 10000 µM (LL-37 [1]; 48 h, 10mM urea): 1.5; fold induction at 20000 µM (LL-37 [1]; 48 h): 1.2; fold induction at 50000 µM (LL-37 [1]; 48 h, 50mM urea): 1.2; fold induction at 100000 µM (LL-37 [1]; 48 h, 100mM urea): 0.8; fold induction at 1000 µM (LL-37 [1]; 72 h, 1mM urea): 11.2; fold induction at 5000 µM (LL-37 [1]; 72 h, 5mM urea): 7.2; fold induction at 10000 µM (LL-37 [1]; 72 h, 10mM urea): 1.8; fold induction at 20000 µM (LL-37 [1]; 72 h): 1.6; fold induction at 50000 µM (LL-37 [1]; 72 h, 50mM urea): 0.8; fold induction at 100000 µM (LL-37 [1]; 72 h, 100mM urea): 0.8; fold induction at 1000 µM (LL-37 [1]; 96 h, 1mM urea): 5; fold induction at 5000 µM (LL-37 [1]; 96 h, 5mM urea): 3.9; fold induction at 10000 µM (LL-37 [1]; 96 h, 10mM urea): 3.2; fold induction at 20000 µM (LL-37 [1]; 96 h): 1.6; fold induction at 50000 µM (LL-37 [1]; 96 h, 50mM urea): 1.3; fold induction at 100000 µM (LL-37 [1]; 96 h, 100mM urea): 1.1; relative gene expression level LL-37 (LL-37 [2]; 3h, 180 min): 1.9000; relative gene expression level LL-37 (LL-37 [2]; 24h, 1440 min): 1.9000; fold induction at 10000 µM (LL-37 [2]; 6 h, 6h): 2.8; fold induction at 10000 µM (LL-37 [2]; 12 h, 12h): 2.3; fold induction at 10000 µM (LL-37 [2]; 24 h, 24h): 2.1; fold induction at 1000 µM (HBD-2; 24 h, read-out: Expression of HBD-2, 24h, 1mM urea): 1.2; fold induction at 10000 µM (HBD-2; 24 h, read-out: Expression of HBD-2, 24h, 10mM urea): 1.5; fold induction at 20000 µM (HBD-2; 24 h, read-out: Expression of HBD-2, 24h, 20mM urea): 3.9; fold induction at 50000 µM (HBD-2; 24 h, read-out: Expression of HBD-2, 24h, 50mM urea): 2.3; fold induction at 100000 µM (HBD-2; 24 h, read-out: Expression of HBD-2, 24h, 100mM urea): 1.3; fold induction at 1000 µM (HBD-2; 48 h, read-out: Expression of HBD-2, 48h, 1mM urea): 0.9; fold induction at 5000 µM (HBD-2; 48 h, read-out: Expression of HBD-2, 48h, 5mM urea): 1.7; fold induction at 10000 µM (HBD-2; 48 h, read-out: Expression of HBD-2, 48h, 10mM urea): 3.3; fold induction at 20000 µM (HBD-2; 48 h, read-out: Expression of HBD-2, 48h, 20mM urea): 19.1; fold induction at 50000 µM (HBD-2; 48 h, read-out: Expression of HBD-2, 48h, 50mM urea): 6.3; fold induction at 100000 µM (HBD-2; 48 h, read-out: Expression of HBD-2, 48h, 100mM urea): 2.3; fold induction at 1000 µM (HBD-2; 72 h, read-out: Expression of HBD-2, 72h, 1mM urea): 2.2; fold induction at 5000 µM (HBD-2; 72 h, read-out: Expression of HBD-2, 72h, 5mM urea): 5.4; fold induction at 10000 µM (HBD-2; 72 h, read-out: Expression of HBD-2, 72h, 10mM urea): 6.5; fold induction at 20000 µM (HBD-2; 72 h, read-out: Expression of HBD-2, 72h, 20mM urea): 13.3; fold induction at 50000 µM (HBD-2; 72 h, read-out: Expression of HBD-2, 72h, 50mM urea): 10.1; fold induction at 100000 µM (HBD-2; 72 h, read-out: Expression of HBD-2, 72h, 100mM urea): 2.9; fold induction at 1000 µM (HBD-2; 96 h, read-out: Expression of HBD-2, 96h, 1mM urea): 1.9; fold induction at 5000 µM (HBD-2; 96 h, read-out: Expression of HBD-2, 96h, 5mM urea): 4.1; fold induction at 10000 µM (HBD-2; 96 h, read-out: Expression of HBD-2, 96h, 10mM urea): 6.1; fold induction at 20000 µM (HBD-2; 96 h, read-out: Expression of HBD-2, 96h, 20mM urea): 15; fold induction at 50000 µM (HBD-2; 96 h, read-out: Expression of HBD-2, 96h, 50mM urea): 12.6; fold induction at 100000 µM (HBD-2; 96 h, read-out: Expression of HBD-2, 96h, 100mM urea): 10.2; Expression of HBD-2 (HBD-2; 24 h, 1000 µM): 1.1000; Expression of HBD-2 (HBD-2; 24 h, 10000 µM): 1.6000; Expression of HBD-2 (HBD-2; 48 h, 1000 µM): 0.7000; Expression of HBD-2 (HBD-2; 48 h, 5000 µM): 1.6000; Expression of HBD-2 (HBD-2; 48 h, 50000 µM): 6.2000; Expression of HBD-2 (HBD-2; 48 h, 100000 µM): 2.6000; Expression of HBD-2 (HBD-2; 72 h, 1000 µM): 2.6000; Expression of HBD-2 (HBD-2; 72 h, 10000 µM): 7.0000; Expression of HBD-2 (HBD-2; 72 h, 20000 µM): 13.2000; Expression of HBD-2 (HBD-2; 96 h, 1000 µM): 1.8000; Expression of HBD-2 (HBD-2; 96 h, 5000 µM): 4.2000; Expression of HBD-2 (HBD-2; 96 h, 100000 µM): 10.9000
